Experimental data as given in patent publication US20100099561A1, “HETEROBICYCLIC ALKYLTHIO-BRIDGED ISOXAZOLINES” (E.I. DU PONT DE NEMOURS AND COMPANY, priority 2008, published 2010).

How the values were obtained:
Format in all cases: in vivo
[1] = system: barnyardgrass (Echinochloa crus-galli); experiment: Test A preemergence, barnyardgrass; conditions: 0 to 100 scale (0 no effect, 100 complete control)
Text: (§1) Seeds of barnyardgrass (Echinochloa crus-galli), large crabgrass (Digitaria sanguinalis), giant foxtail (Setaria faberi), morningglory (Ipomoea spp.), pigweed (Amaranthus retroflexus), velvetleaf (Abutilon theophrasti), wheat (Triticum aestivum), and corn (Zea mays) were planted into a blend of loam soil and sand and treated preemergence with a directed soil spray using test chemicals formulated in a non-phytotoxic solvent mixture which included a surfactant. At the same time these species were also treated with postemergence applications of test compounds formulated in the same manner. Plants ranged in height from two to ten cm and were in the one- to two-leaf stage for the postemergence treatment. Treated plants and untreated controls were maintained in a greenhouse for approximately ten days, after which time all treated plants were compared to untreated controls and visually evaluated for injury. Plant response ratings, summarized in Table A, are based on a 0 to 100 scale where 0 is no effect and 100 is complete control. A dash (-) response means no test result.

[2] = system: large crabgrass (Digitaria sanguinalis); experiment: Test A postemergence, large crabgrass; conditions: 0 to 100 scale (0 no effect, 100 complete control)
Text: as §1

corn (Zea mays) [3] = experiment: Test A preemergence, corn; conditions: 0 to 100 scale (0 no effect, 100 complete control)
Text: as §1

[4] = system: velvetleaf (Abutilon theophrasti); experiment: Test A postemergence, velvetleaf; conditions: 0 to 100 scale (0 no effect, 100 complete control)
Text: as §1

[5] = system: pigweed (Amaranthus retroflexus); experiment: Test A preemergence, pigweed; conditions: 0 to 100 scale (0 no effect, 100 complete control)
Text: as §1

[6] = system: barnyardgrass (Echinochloa crus-galli); experiment: Test A postemergence, barnyardgrass; conditions: 0 to 100 scale (0 no effect, 100 complete control)
Text: as §1

[7] = system: wheat (Triticum aestivum); experiment: Test A preemergence, wheat; conditions: 0 to 100 scale (0 no effect, 100 complete control)
Text: as §1

[8] = system: wheat (Triticum aestivum); experiment: Test A postemergence, wheat; conditions: 0 to 100 scale (0 no effect, 100 complete control)
Text: as §1

[9] = system: giant foxtail (Setaria faberi); experiment: Test A preemergence, giant foxtail; conditions: 0 to 100 scale (0 no effect, 100 complete control)
Text: as §1

[10] = system: umbrella sedge (Cyperus difformis); experiment: Test B flooded paddy test, umbrella sedge; conditions: Flood, scale 0 to 100
Text: (§2) Plant species in the flooded paddy test consisted of rice (Oryza sativa), umbrella sedge (Cyperus difformis), ducksalad (Heteranthera limosa) and barnyardgrass (Echinochloa crus-galli) grown to the 2-leaf stage for testing. At time of treatment, test pots were flooded to 3 cm above the soil surface, treated by application of test compounds directly to the paddy water, and then maintained at that water depth for the duration of the test. Treated plants and controls were maintained in a greenhouse for 13 to 15 days, after which time all species were compared to controls and visually evaluated. Plant response ratings, summarized in Table B, are based on a scale of 0 to 100 where 0 is no effect and 100 is complete control. A dash (-) response means no test result.

[11] = system: morningglory (Ipomoea spp.); experiment: Test A postemergence, morningglory; conditions: 0 to 100 scale (0 no effect, 100 complete control)
Text: as §1

corn (Zea mays) [12] = experiment: Test A postemergence, corn; conditions: 0 to 100 scale (0 no effect, 100 complete control)
Text: as §1

[13] = system: ducksalad (Heteranthera limosa); experiment: Test B flooded paddy test, ducksalad; conditions: Flood, scale 0 to 100
Text: as §2

[14] = system: barnyardgrass (Echinochloa crus-galli); experiment: Test B flooded paddy test, barnyardgrass; conditions: Flood
Text: as §2

[15] = system: large crabgrass (Digitaria sanguinalis); experiment: Test A preemergence, large crabgrass; conditions: 0 to 100 scale (0 no effect, 100 complete control)
Text: as §1

[16] = system: pigweed (Amaranthus retroflexus); experiment: Test A postemergence, pigweed; conditions: 0 to 100 scale (0 no effect, 100 complete control)
Text: as §1

[17] = system: velvetleaf (Abutilon theophrasti); experiment: Test A preemergence, velvetleaf; conditions: 0 to 100 scale (0 no effect, 100 complete control)
Text: as §1

rice (Oryza sativa) = experiment: Test B flooded paddy test, rice; conditions: Flood, scale 0 to 100
Text: as §2

[18] = system: giant foxtail (Setaria faberi); experiment: Test A postemergence, giant foxtail; conditions: 0 to 100 scale (0 no effect, 100 complete control)
Text: as §1

[19] = system: morningglory (Ipomoea spp.); experiment: Test A preemergence, morningglory; conditions: 0 to 100 scale (0 no effect, 100 complete control)
Text: as §1

[20] = 250 g ai/ha, scale 0 to 100 (0 no effect, 100 complete control)

For `CC1(C)CC(S(=O)(=O)Cc2c(C(F)(F)C(F)(F)F)nc3n(c2=O)CCCO3)=NO1` [Compound 55], the “Plant response rating, Barnyardgrass” value ([1]; 125 g ai/ha) was 50, the “Plant response rating, Barnyardgrass” value ([1]; 500 g ai/ha) was 80 and the “Plant response rating, Crabgrass, Large” value ([2]; 125 g ai/ha) was 30. For the same compound, the “Plant response rating, Crabgrass, Large” value ([2]; 500 g ai/ha) was 70, the “Plant response rating, Corn” value (corn (Zea mays) [3]; 125 g ai/ha) was 0 and the “Plant response rating, Corn” value (corn (Zea mays) [3]; 500 g ai/ha) was 0. The “Plant response rating, Velvetleaf” value ([4]; 125 g ai/ha) was 0, the “Plant response rating, Velvetleaf” value ([4]; 500 g ai/ha) was 30 and the “Plant response rating, Pigweed” value ([5]; 125 g ai/ha) was 0. For the same compound, the “Plant response rating, Pigweed” value ([5]; 500 g ai/ha) was 40, the “Plant response rating, Barnyardgrass” value ([6]; 125 g ai/ha) was 70 and the “Plant response rating, Barnyardgrass” value ([6]; 500 g ai/ha) was 90. For the same compound, the “Plant response rating, Wheat” value ([7]; 125 g ai/ha) was 0, the “Plant response rating, Wheat” value ([7]; 500 g ai/ha) was 20 and the “Plant response rating, Wheat” value ([8]; 125 g ai/ha) was 0. For the same compound, the “Plant response rating, Wheat” value ([8]; 500 g ai/ha) was 30, the “Plant response rating, Foxtail, Giant” value ([9]; 125 g ai/ha) was 80 and the “Plant response rating, Foxtail, Giant” value ([9]; 500 g ai/ha) was 90. The “Plant response rating, Sedge, Umbrella” value ([10]; 31 g ai/ha) was 0, the “Plant response rating, Sedge, Umbrella” value ([10]; 62 g ai/ha) was 0 and the “Plant response rating, Sedge, Umbrella” value ([10]; 125 g ai/ha) was 0. For the same compound, the “Plant response rating, Sedge, Umbrella” value ([10]; 250 g ai/ha) was 0, the “Plant response rating, Morningglory” value ([11]; 125 g ai/ha) was 10 and the “Plant response rating, Morningglory” value ([11]; 500 g ai/ha) was 20. The “Plant response rating, Corn” value (corn (Zea mays) [12]; 125 g ai/ha) was 0, the “Plant response rating, Corn” value (corn (Zea mays) [12]; 500 g ai/ha) was 0 and the “Plant response rating, Ducksalad” value ([13]; 31 g ai/ha) was 0. The “Plant response rating, Ducksalad” value ([13]; 62 g ai/ha) was 0, the “Plant response rating, Ducksalad” value ([13]; 125 g ai/ha) was 0 and the “Plant response rating, Ducksalad” value ([13]; 250 g ai/ha) was 0. The “Plant response rating, Barnyardgrass” value ([14]; 31 g ai/ha, scale 0 to 100) was 0, the “Plant response rating, Barnyardgrass” value ([14]; 62 g ai/ha, scale 0 to 100) was 0 and the “Plant response rating, Barnyardgrass” value ([14]; 125 g ai/ha, scale 0 to 100) was 0. For the same compound, the “Plant response rating, Barnyardgrass” value [14, 20] was 0, the “Plant response rating, Crabgrass, Large” value ([15]; 125 g ai/ha) was 0 and the “Plant response rating, Crabgrass, Large” value ([15]; 500 g ai/ha) was 90. The “Plant response rating, Pigweed” value ([16]; 125 g ai/ha) was 0, the “Plant response rating, Pigweed” value ([16]; 500 g ai/ha) was 10 and the “Plant response rating, Velvetleaf” value ([17]; 125 g ai/ha) was 0. For the same compound, the “Plant response rating, Velvetleaf” value ([17]; 500 g ai/ha) was 30, the “Plant response rating, Rice” value (rice (Oryza sativa); 31 g ai/ha) was 0 and the “Plant response rating, Rice” value (rice (Oryza sativa); 62 g ai/ha) was 0. The “Plant response rating, Rice” value (rice (Oryza sativa); 125 g ai/ha) was 0, the “Plant response rating, Rice” value (rice (Oryza sativa); 250 g ai/ha) was 0 and the “Plant response rating, Foxtail, Giant” value ([18]; 125 g ai/ha) was 70. The “Plant response rating, Foxtail, Giant” value ([18]; 500 g ai/ha) was 80, the “Plant response rating, Morningglory” value ([19]; 125 g ai/ha) was 0 and the “Plant response rating, Morningglory” value ([19]; 500 g ai/ha) was 50.
For `CC1(C)CC(S(=O)(=O)Cc2c(C(F)(F)F)nc3cccnn3c2=O)=NO1` [Compound 45], the “Plant response rating, Barnyardgrass” value ([1]; 125 g ai/ha) was 20, the “Plant response rating, Barnyardgrass” value ([1]; 500 g ai/ha) was 90 and the “Plant response rating, Crabgrass, Large” value ([2]; 125 g ai/ha) was 20. For the same compound, the “Plant response rating, Crabgrass, Large” value ([2]; 500 g ai/ha) was 70, the “Plant response rating, Corn” value (corn (Zea mays) [3]; 125 g ai/ha) was 0 and the “Plant response rating, Corn” value (corn (Zea mays) [3]; 500 g ai/ha) was 0. For the same compound, the “Plant response rating, Velvetleaf” value ([4]; 125 g ai/ha) was 0, the “Plant response rating, Velvetleaf” value ([4]; 500 g ai/ha) was 0 and the “Plant response rating, Pigweed” value ([5]; 500 g ai/ha) was 0. For the same compound, the “Plant response rating, Barnyardgrass” value ([6]; 125 g ai/ha) was 30, the “Plant response rating, Barnyardgrass” value ([6]; 500 g ai/ha) was 70 and the “Plant response rating, Wheat” value ([7]; 125 g ai/ha) was 0. The “Plant response rating, Wheat” value ([7]; 500 g ai/ha) was 10, the “Plant response rating, Wheat” value ([8]; 125 g ai/ha) was 0 and the “Plant response rating, Wheat” value ([8]; 500 g ai/ha) was 0. The “Plant response rating, Foxtail, Giant” value ([9]; 125 g ai/ha) was 30, the “Plant response rating, Foxtail, Giant” value ([9]; 500 g ai/ha) was 90 and the “Plant response rating, Sedge, Umbrella” value ([10]; 31 g ai/ha) was 0. The “Plant response rating, Sedge, Umbrella” value ([10]; 62 g ai/ha) was 0, the “Plant response rating, Sedge, Umbrella” value ([10]; 125 g ai/ha) was 0 and the “Plant response rating, Sedge, Umbrella” value ([10]; 250 g ai/ha) was 0. The “Plant response rating, Morningglory” value ([11]; 125 g ai/ha) was 0, the “Plant response rating, Morningglory” value ([11]; 500 g ai/ha) was 30 and the “Plant response rating, Corn” value (corn (Zea mays) [12]; 125 g ai/ha) was 0. The “Plant response rating, Corn” value (corn (Zea mays) [12]; 500 g ai/ha) was 0, the “Plant response rating, Ducksalad” value ([13]; 31 g ai/ha) was 0 and the “Plant response rating, Ducksalad” value ([13]; 62 g ai/ha) was 0. The “Plant response rating, Ducksalad” value ([13]; 125 g ai/ha) was 0, the “Plant response rating, Ducksalad” value ([13]; 250 g ai/ha) was 0 and the “Plant response rating, Barnyardgrass” value ([14]; 31 g ai/ha, scale 0 to 100) was 0. The “Plant response rating, Barnyardgrass” value ([14]; 62 g ai/ha, scale 0 to 100) was 0, the “Plant response rating, Barnyardgrass” value ([14]; 125 g ai/ha, scale 0 to 100) was 0 and the “Plant response rating, Barnyardgrass” value [14, 20] was 0. The “Plant response rating, Crabgrass, Large” value ([15]; 125 g ai/ha) was 20, the “Plant response rating, Crabgrass, Large” value ([15]; 500 g ai/ha) was 90 and the “Plant response rating, Pigweed” value ([16]; 125 g ai/ha) was 0. For the same compound, the “Plant response rating, Pigweed” value ([16]; 500 g ai/ha) was 10, the “Plant response rating, Velvetleaf” value ([17]; 125 g ai/ha) was 0 and the “Plant response rating, Velvetleaf” value ([17]; 500 g ai/ha) was 0. For the same compound, the “Plant response rating, Rice” value (rice (Oryza sativa); 31 g ai/ha) was 0, the “Plant response rating, Rice” value (rice (Oryza sativa); 62 g ai/ha) was 0 and the “Plant response rating, Rice” value (rice (Oryza sativa); 125 g ai/ha) was 0. The “Plant response rating, Rice” value (rice (Oryza sativa); 250 g ai/ha) was 0, the “Plant response rating, Foxtail, Giant” value ([18]; 125 g ai/ha) was 20 and the “Plant response rating, Foxtail, Giant” value ([18]; 500 g ai/ha) was 60. For the same compound, the “Plant response rating, Morningglory” value ([19]; 125 g ai/ha) was 0 and the “Plant response rating, Morningglory” value ([19]; 500 g ai/ha) was 0.
